Experimental data published in patent US4996212A, “Antiinflammatory and anti-hyperproliferative compounds” (Schering Corporation, priority 1989, dated 1991).

Experiments:
[1] = target: T1, 5-lipoxygenase (Rattus norvegicus, UniProt P12527); assay: 5-lipoxygenase activity / arachidonic acid metabolism in rat neutrophils; assay type: cell-based; settings: compound concentration 5×^10-5 Molar, [14C] arachidonic acid
T1 construct: at 3-12×10^7 intact neutrophils per ml; endogenous in cells; host or cells: neutrophils from the pleural exudate of male Wistar-Lewis rats (reversed passive Arthus reaction)
T1 sequence (P12527 1-673): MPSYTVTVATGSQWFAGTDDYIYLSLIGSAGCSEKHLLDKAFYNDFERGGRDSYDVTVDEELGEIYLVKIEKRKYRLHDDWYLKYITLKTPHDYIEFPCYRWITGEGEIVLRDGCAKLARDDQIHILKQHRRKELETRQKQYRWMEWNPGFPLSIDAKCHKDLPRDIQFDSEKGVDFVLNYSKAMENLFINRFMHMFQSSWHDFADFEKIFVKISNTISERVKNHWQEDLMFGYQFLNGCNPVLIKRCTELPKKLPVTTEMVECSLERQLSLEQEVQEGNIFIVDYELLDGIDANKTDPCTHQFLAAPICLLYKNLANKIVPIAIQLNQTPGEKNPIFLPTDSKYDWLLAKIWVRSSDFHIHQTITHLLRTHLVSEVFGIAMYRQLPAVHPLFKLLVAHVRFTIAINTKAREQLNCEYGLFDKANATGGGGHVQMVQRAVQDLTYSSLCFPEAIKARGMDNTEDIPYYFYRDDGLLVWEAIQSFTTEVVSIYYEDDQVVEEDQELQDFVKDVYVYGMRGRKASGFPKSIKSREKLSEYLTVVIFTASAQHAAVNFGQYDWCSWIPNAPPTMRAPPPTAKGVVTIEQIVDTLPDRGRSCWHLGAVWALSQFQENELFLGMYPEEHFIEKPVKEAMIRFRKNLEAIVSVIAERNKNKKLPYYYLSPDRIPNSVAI
Description: The effect of the compounds of the invention on 5-lipoxygenase activity is determined using rat neutrophils. Male Wistar-Lewis rats are injected intravenously with 5 mg BSA in 0.2 ml pyrogen free saline followed by an intrapleural injection of 500 ug of the IgG fraction of rabbit anti-BSA (Cappel Labs., Lot 17782) in 0.2 ml pyrogen free saline. Injections are made under light ether anesthesia. Four hours later, the pleural cavity exudate consisting of 85 to 95% neutrophils is removed. Neutrophils are isolated from the pleural exudates by centrifugation of 4° C. for 10 min at 200×g. The cell pellet is resuspended in 17 mM Tris HCl buffer, pH 7.2, containing 0.75% NH4 Cl to lyse contaminating erythrocytes followed by centrifugation at 4° C. for 5 min at 200×g. The pelleted neutrophils are rewashed in 50 mM Tris HCl, pH 7.4, containing 100 mM NaCl, followed by the same centrifugation. The cell pellet is resuspended in 50 mM Tris HCl, pH 7.4, containing 100 mM NaCl and 1 mM CaCl2, at 3-12×10^7 intact neutrophils per ml.
Solutions of compounds in methanol are dried, then resuspended in the cell suspension for 4 min. Arachidonic acid metabolism is determined by incubating 0.1 ml of this suspension with 40 uM [×^14 C] arachidonic acid (AA) (Amersham, 59 Ci/mole), in the presence of 0.1% BRIJ 56 and 10 uM A23187. Arachidonic acid metabolism as well as the various drug and reagent abbreviations are described in detail in Arch. Dermatol, Vol. 119, pages 541 to 547 (July 1983), the teachings of which are incorporated herein by reference. Assays run in triplicate are initiated by adding cells with inhibitor to a film of the BRIJ 56, arachidonic acid and A23187 at 37° C. After one minute, reactions are terminated by the addition of 2.4 ml of a chloroform:methanol (1:1 v/v) mixture and 0.9 ml of 0.1% formic acid. […] Products, leukotriene B4 (LTB4), 12-hydroxy heptadecatrienoic acid (HHT) and 5-hydroxy icosatetraenoic acid (5-HETE), are located by autoradiography and appropriate regions of the thin layer plates are scraped and counted in a liquid scintillation counter. […]

[2] = test system: pleural cavity of rats; assay: reverse passive Arthus reaction in the pleural cavity of rats; assay type: in vivo; settings: po, rat pleural cavity RPAR
Description: Another procedure for testing for acute antiinflammatory activity measures the reverse passive Arthus reaction in the pleural cavity of rats as described in Myers et al., Inflammation, Vol. 9, No. 1, 1985, pp. 91-98.

[3] = test system: Male Lewis inbred albino rats; assay: Reversed Passive Arthus Reaction (RPAR), paw volume; assay type: in vivo; settings: po, rat paw RPAR
Description: Reversed Passive Arthus Reaction (RPAR) Animals, Materials and Methods
Male Lewis inbred albino rats weighing 180-220 grams obtained from Charles River Breeding Laboratories are used in these experiments. The rats are housed 3 animals/cage and food and water are allowed ad libitum.
The animals are numbered 1-3 in each cage and color marked for identification purposes.
All reagents and drugs are prepared just prior to the study. Crystallized and lyophilized bovine serum albumin (BSA), obtained from Sigma Chemical Company, is solubilized without shaking in cold sterile pyrogen free saline (10 mg/ml). Lyophilized anti-bovine serum albumin (IgG Fraction), obtained from Cappel Laboratories, is suspended in sterile distilled water and diluted with cold pyrogen free saline (PFS) just prior to use. The final concentration of anti-bovine serum albumin is 0.5 mg/ml of PFS. Both BSA and anti-BSA solutions are iced during use. Drugs are suspended or solubilized in an aqueous solution of methyl cellulose (MC) with a homogenizer just prior to administration.
Groups of animals (6/group) are dosed with drug in MC by gavage one hour prior to sensitization with BSA. […] The volume of mercury displaced is converted to weight and recorded. […] Paw volumes are also recorded with a plethysmograph during the development of the inflammation at 2 and 4 hours post-challenge.

inhibition of HETE production [1] [%]	inhibition of HHT production [1]	inhibition of LTB4 production [1] [%]	Structure (SMILES)	ED50 [2] [mg/kg]	ED50 [3] [mg/kg]
~60	about 40%	~60	O=c1c2c(c3cccnc3n1-c1ccccc1)N(c1ccccc1)CC2 [1,2,3,5-tetrahydro-1,5-diphenyl-4H-pyrrolo[3,2-c][1,8]napthyridin-4-one]		
			O=c1c2c(c3cccnc3n1-c1ccccc1)NCC2 [1,2,3,5-tetrahydro-5-phenyl-4H-pyrrolo[3,2-c][I, 8]napthyridin-4-one]	< 25	~25
			CCOC(=O)N1CCc2c1c1cccnc1n(-c1ccccc1)c2=O [2,3,4,5-tetrahydro-4-oxo-5-phenyl-1H-pyrrolo[3,2-c][1,8]napthyridine-1-carboxylic acid, ethyl ester]	~25	
